In paper PMC5549732 (PLoS ONE, 2017):
“And” between values parts separate entries of the source, which are not always exact repeats. Equal values may be shown once.

What was measured:
HT-29 tumors = assay: Biodistribution and in vivo imaging kinetics of the probes in HT-29 tumor-bearing mice; design: species or system nu/nu mice
Procedure: (§1) Selectivity was assessed in vitro using HT-29 human colorectal cells; fluorescence signal on BRS-680-labeled cells was ~7X greater than either the scrambled peptide version of the probe or when 100X unlabeled bombesin peptide was used to block labeling (S2 Fig) as assessed by both flow cytometry and fluorescence microscopy. […] Tumor tissue localization co-localized well with ex vivo anti-bombesin receptor staining (S5 Fig).
Selectivity was assessed in vitro by flow cytometry and fluorescence microscopy using HT-29 human colorectal cells; fluorescence signal on TfV-750-labeled cells was ~15X greater than when 100 μM unlabeled recombinant transferrin was used to block labeling (S7 Fig). […] Animals were bled at indicated times, and plasma fluorescence was determined using a microplate assay. […] The probe has good tissue penetration into tumors, as its binding pattern in tumor sections (using a 645 nm FLI surrogate to improve microscopy imaging) correlates well with the transferrin receptor expression on cancer cells and is not associated with the tumor vasculature (S10 Fig).
Blood samples were obtained via terminal cardiac puncture and plasma fluorescence was quantified on a fluorescence plate reader. […] Mice were sacrificed 24 hours post-injection and tissues were excised, rinsed with PBS, and imaged on the FMT 4000 (PerkinElmer, Waltham, MA), in epifluorescence mode. Epifluorescence levels were determined using TrueQuant™ FMT software and are represented as Mean Fluorescence to compensate for differences in tissue size. (TIF) Click here for additional data file.
Noninvasive fluorescence tomographic imaging datasets were used to quantify kinetic fluorescence changes in the tumors, heart, and liver. An optimal imaging time point of 24h was determined based on specificity of tumor signal and tumor’s signal-to-background ratio. (TIF) Click here for additional data file.
B: Quantification of tissue epifluorescence images, with data inset representing plasma pharmacokinetics assessed from serial bleeds of mice measured on a microplate fluorimeter. (TIF) Click here for additional data file.
Elevated TfV-750 signals in the liver and tumor indicate higher iron metabolism in these tissues. (TIF) Click here for additional data file.

[1] = Plasma pharmacokinetics of the probes, fluorescence microplate assay; type: in vivo; conditions: CD-1 mice; 2 nmoles IV; plasma fluorescence on a microplate reader
Procedure: as §1
Selectivity was assessed in vitro by flow cytometry and fluorescence microscopy using HT-29 human colorectal cells; fluorescence signal on TfV-750-labeled cells was ~15X greater than when 100 μM unlabeled recombinant transferrin was used to block labeling (S7 Fig). […] Animals were bled at indicated times, and plasma fluorescence was determined using a microplate assay. […]
Blood samples were obtained via terminal cardiac puncture and plasma fluorescence was quantified on a fluorescence plate reader. […] Epifluorescence levels were determined using TrueQuant™ FMT software and are represented as Mean Fluorescence to compensate for differences in tissue size. […]
B: Quantification of tissue epifluorescence images, with data inset representing plasma pharmacokinetics assessed from serial bleeds of mice measured on a microplate fluorimeter. […]

HCT116-luc2 tumors [2] = assay: BLI of firefly luciferase activity (tumor viability) in HCT116-luc2 xenografts; type: in vivo, nu/nu mice
Procedure: Optical BLI and FLI were performed using the IVIS® SpectrumCT, which is capable of imaging multiple mice simultaneously (up to 5 mice). To generate BLI signals, the tumor-bearing mice received IP injections of 75 mg/kg of D-luciferin (potassium salt, PerkinElmer Inc.) and were placed into the imager for sequential image acquisitions (settings: FOV = D, Binning = 16, F/Stop = 1, Open filter, 2 min delay between each acquisition) under 1–2% of isoflurane anesthesia. Maximal bioluminescence output for each tumor was determined by sequentially acquiring a BLI image every two minutes for up to 16 min. Typical peak imaging time for the HCT116-luc2 subcutaneous model was approximately 10 min, and BLI images are represented in units of radiance (p/sec/cm^2/sr).
(§2) BLI and FLI images were analyzed using the Living Image software (version 4.4 for Windows, PerkinElmer Inc.). Tumor BLI and FLI signals were quantified using the region of interest (ROI) tools, and the total optical signals were calculated as total flux (photon counts/sec) and total radiant efficiency [(p/s)/(μW/cm^2)], respectively. For greater accuracy, all FLI data was corrected for background levels based on specific measurements as described in the figure legends. All PET images were represented as standard uptake value (SUV) using the VivoQuant 3.0 software and tumor-specific ^18F-FDG uptake levels were also calculated using SUVtotal. […] For each treatment group, we calculated relative tracer uptake in tumors using the day 0 uptake level as 100%. For statistical analysis, we used the GraphPad Prism software (version 6.0 for Windows, La Jolla, CA). Data are presented as the mean ± standard error of the mean (s.e.m.). Statistical analysis was conducted using ANOVA or Student’s t-test, as indicated. P < 0.05 was the cutoff for being considered statistically significant.

HCT116-luc2 tumors [3] = assay: H&E histology of tumor tissue sections; type: in vivo, nu/nu mice; conditions: sorafenib 120 mg/kg, days 0-4 and 7-9; day 9
Procedure: Tumor tissues were fixed in 10% neutral buffered formalin, followed by routine process and embedment in paraffin. Tissue sections (5 μm) were prepared on electrostatically charged glass slides and then baked at 60°C overnight. After washing the slides with three washes in xylene, the slides were rehydrated through a series of graded ethanol (100%, 90% and 70%) to water. The prepared slides were then stained with hematoxylin and eosin.
Fig 1 Sorafenib, a tyrosine kinase inhibitor, effectively suppresses HCT116-luc2 tumor growth. Nude mice bearing subcutaneous tumors on the flanks were treated with vehicle or with 120 mg/kg of sorafenib on days 0–4 and days 7–9 via oral gavage. A: Longitudinal tumor volume measurements of subcutaneous HCT116-luc2 tumors (***p < 0.0001, n = 5 per group, two-way ANOVA, mean and s.e.m., representative of three studies) B: H&E staining of tumor tissue sections harvested from the vehicle and sorafenib-treated (120 mg/kg) tumors on day 9. […] Bar: 50 μm.

HCT116-luc2 tumors [4] = assay: 18F-FDG microPET imaging of tumor glucose uptake; type: in vivo, nu/nu mice; conditions: sorafenib 40 mg/kg daily oral gavage; days 2 and 3 post-treatment; n = 5 per group
Procedure: We also performed microPET imaging using ^18F-FDG as a tracer for detecting changes in tumor glucose uptake with or without treatment. Images were acquired using the G8 PET/CT system (PerkinElmer Inc.). For each mouse, 100 μCi of ^18F-FDG (PETNET Solutions Inc., Malvern PA) was injected intravenously (IV), and all mice were kept warm and maintained under 1.5% isoflurane gas anesthesia for 1 hour for tracer uptake. Subsequently, the mice were imaged with a standard 10 min static F-18 imaging protocol. The G8 PET/CT system automatically performed image reconstruction after acquisition and provided 3D tomography imaging in the DICOM format. We were able to image the same cohorts (n = 5) throughout the course of study since ^18F has a relative short decay half-life (~110 min). […]
(§3) BLI and FLI images were analyzed using the Living Image software (version 4.4 for Windows, PerkinElmer Inc.). Tumor BLI and FLI signals were quantified using the region of interest (ROI) tools, and the total optical signals were calculated as total flux (photon counts/sec) and total radiant efficiency [(p/s)/(μW/cm^2)], respectively. […] All PET images were represented as standard uptake value (SUV) using the VivoQuant 3.0 software and tumor-specific ^18F-FDG uptake levels were also calculated using SUVtotal. […] For each treatment group, we calculated relative tracer uptake in tumors using the day 0 uptake level as 100%. […]

[5] = tested on: HCT116-luc2 subcutaneous xenografts; assay: Caliper tumor volume measurement of subcutaneous HCT116-luc2 xenografts
Procedure: Specific pathogen-free nu/nu (Crl:NU-Fox1^nu, 6–8 weeks old) and CD-1 (Crl:CD1[ICR]) mice were purchased from Charles River Laboratories (Wilmington, MA). Mice were housed in a controlled environment (72°F; 12:12-h light-dark cycle) under specific-pathogen free conditions with water and food provided ad libitum. To induce tumor growth, 2.5 x10^6 of HCT116-luc2 cells were subcutaneously injected on the right flank of a nude mouse. Two weeks after cancer cell inoculation, when the tumor volume reached an appropriate size (measured by caliper and calculated by the formula 0.5 x length x width^2), animals were randomized into vehicle or different sorafenib treatment groups as indicated. Sorafenib was prepared in water containing 6.2% of ethanol and 6.2% of Kolliphor EL (Sigma-Aldrich, St. Louis, MO). The treatment was given daily 5 times a week by oral gavage at 15 μl per gram of body weight.
We initiated the treatment when the average HCT116-luc2 tumor size for each group reached ~180 mm^3 in volume (day 0). The drug was given daily via oral gavage at a dosage of 120 mg/kg from days 0 to 4 and from days 7 to 9.
In this set of studies (Fig 2), treatments were initiated when the average group HCT116-luc2 tumor size reached ~100 mm^3 in volume. […] The drug was given daily, from days 0 to 4 and from days 7 to 11. In addition to the conventional tumor volume measurements by caliper, we performed BLI of firefly luciferase activity to access tumor viability on the days indicated.

HCT116-luc2 tumors [6] = assay: BRS-680 fluorescence imaging (FLI) of tumor bombesin receptor expression; type: in vivo, nu/nu mice; conditions: for inhibition of BRS-680 tumor FLI signal: sorafenib 40 mg/kg daily oral gavage
Procedure: In addition, the imager is equipped with suitable excitation and emission filter sets for FLI of BRS-680 and TfV-750. Tumor metabolic activities were visualized by IV injection of a mixture of these two NIR imaging agents (2 nmol/mouse each in a total volume of 100 μl of PBS). The agents were injected 16 h prior to FLI imaging in order to allow optimal probe uptake and clearance of unbound probe. For the longitudinal FLI imaging studies, separate cohorts were used for FLI acquisitions on days 1 (n = 10, imaging agents injected on day 0), 2 (n = 10, injected on day 1), and 3 (n = 5, injected on day 2) due to the extended time required for probe washout. […] Fluorescent signal is represented as radiant efficiency [(p/sec/cm^2/sr)/(μW/cm^2)] or normalized fluorescent signal where appropriate.
as §2, with “SUVtotal. Several similar imaging experiments were performed using this particular HCT116-luc2 tumor model to visualize treatment responses to sorafenib.” for “SUVtotal.”
Besides interfering with glycolytic activity, we believe inhibition of the Ras/Raf/MEK/ERK pathways with sorafenib has a broader, global impact on tumor energy metabolism. […] We wonder if these FLI probes can detect early, yet subtle metabolic disturbances induced by sorafenib treatment prior to the later regression of treated tumors, like we saw with ^18F-FDG PET imaging. […] Separate cohorts were used for FLI acquisitions on days 1, 2, and 3 due to the extended time required for probe washout. Of note, the day 1 cohort was re-injected with probe for imaging on day 10 to assess ultimate treatment efficacy. […]

HCT116-luc2 tumors [7] = assay: TfV-750 fluorescence imaging (FLI) of tumor transferrin receptor expression; type: in vivo, nu/nu mice
Procedure: In addition, the imager is equipped with suitable excitation and emission filter sets for FLI of BRS-680 and TfV-750. Tumor metabolic activities were visualized by IV injection of a mixture of these two NIR imaging agents (2 nmol/mouse each in a total volume of 100 μl of PBS). The agents were injected 16 h prior to FLI imaging in order to allow optimal probe uptake and clearance of unbound probe. For the longitudinal FLI imaging studies, separate cohorts were used for FLI acquisitions on days 1 (n = 10, imaging agents injected on day 0), 2 (n = 10, injected on day 1), and 3 (n = 5, injected on day 2) due to the extended time required for probe washout. […]
as §3

[8] = HT-29 tumor-bearing mice, 2 nmol/mouse IV
[9] = HT-29 tumor-bearing nu/nu mice, 2 nmol IV, tissues excised 24 h post-injection, epifluorescence
[10] = sorafenib 40 mg/kg, first 3 days of treatment
[11] = sorafenib 40 mg/kg, within 2 days of treatment, n = 5 per group
[12] = sorafenib 120 mg/kg daily for 8 days, imaged day 9, stated for both FLI probes

TfV-750: PEGylated recombinant transferrin with a NIR fluorescent reporter (ex/em 750/770 nm); transferrin receptor imaging probe
optimal time for in vivo tumor imaging post injection (HT-29 tumors; [8]): 6 to 24 h
time to (near) complete clearance from the system (HT-29 tumors; [8]): about 4 days
biodistribution to tumors in collected tissues (HT-29 tumors; [9]): good biodistribution to tumors
route of clearance in collected tissues (HT-29 tumors; [9]): efficient clearance via kidney excretion
circulation half-life (plasma t1/2) [1]: ~ 9 h

CNC(=O)c1cc(Oc2ccc(NC(=O)Nc3ccc(Cl)c(C(F)(F)F)c3)cc2)ccn1 [sorafenib, Sorafenib]
reduction in BLI signal (HCT116-luc2 tumors [2]; [10]): no significant reduction
reduction in viability (assessed by BLI) (HCT116-luc2 tumors [2]; [11]): no significant reduction
BLI and tumor volume results compared with the 120 mg/kg dose (HCT116-luc2 tumors [2]; sorafenib 80 mg/kg daily, days 0-4 and 7-11): Comparable results
suppression of tumor viability (BLI) (HCT116-luc2 tumors [2]; sorafenib 120 mg/kg daily, days 0-4 and 7-11, by day 11, n = 5 per group): ~ 90%
reduction in tumor BLI signals (HCT116-luc2 tumors [2]; sorafenib 120 mg/kg, 2 days after the treatment began, n = 5 per group): ~ 40%
tumor death in H&E stained tumor tissue sections (HCT116-luc2 tumors [3]): extensive tumor death
inhibition of tumor uptake of 18F-FDG (HCT116-luc2 tumors [4]): 55–60% and 50–60%
decrease of overt tumor size ([5]; sorafenib 40 mg/kg daily, by day 10, PET study cohort, n = 5 per group): ~ 50%
growth inhibition in comparison with untreated control tumors ([5]; sorafenib 40 mg/kg, by day 10 or 11, over multiple studies): 50–90%
reduction in tumor volume [5, 10]: no significant reduction
reduction in size (tumor volume) [5, 11]: no significant reduction
efficacy against tumor growth by tumor volume, versus vehicle ([5]; sorafenib 120 mg/kg oral gavage, days 0-4 and 7-9, n = 5 per group): clearly demonstrated the drug’s efficacy
change in tumor volume ([5]; sorafenib 120 mg/kg, day 2, n = 5 per group): no significant change
inhibition of BRS-680 tumor FLI signal (HCT116-luc2 tumors [6]; day 2, n = 10): 40%
inhibition of BRS-680 tumor FLI signal (HCT116-luc2 tumors [6]; day 3, n = 5): 79%
inhibition of BRS-680 tumor signal (HCT116-luc2 tumors [6]; sorafenib 40 mg/kg, within the 2-3 day window, normalized to vehicle control): 40–80%
reduction in BRS-680 FLI signal as compared to controls (HCT116-luc2 tumors [6]; [12]): ≥ 40%
inhibition of TfV-750 tumor FLI signal (HCT116-luc2 tumors [7]; sorafenib 40 mg/kg daily oral gavage, day 3, n = 5): 65% and ~ 70%
reduction in TfV-750 FLI signal as compared to controls (HCT116-luc2 tumors [7]; [12]): ≥ 40%
